Assay results taken from publication PMC12966202 (Molecular Imaging and Biology, 2025).
Where “and” joins values, the source holds several entries; their conditions need not be identical. Identical values can stand only once.

Procedure: Subjects with localized known or suspected infection were recruited and provided informed consent according to guidelines of the University of Pennsylvania Institutional Review Board. […] The full study protocols are available at clinicaltrials.gov, NCT03424525 and were performed under the authority of the University of Pennsylvania Radioactive Drug Research Committee.
PET scans were acquired from head to mid-thigh over 15 min in 10 overlapping bed positions at 90 s per bed position with ~ 50% bed overlap. The first PET scan was started immediately following injection, followed by a second scan at 20 ± 3 min post-injection, and a third scan at 63 ± 4 min post-injection. Suspected infections outside of the dosimetry scan field of view were optionally imaged following the acquisition of the final dosimetry scan. Subjects had the option to void bladders between the second and third PET/CT scans and following the last scan, without urine collection. Images were reconstructed using a list-mode time-of-flight ordered subsets expectation maximization algorithm (TOF-OSEM). […] These images were reconstructed using TOF-OSEM, but were not included in the quantitative dosimetry results (Fig. 2).
Total activity in the brain, gallbladder, heart, intestines, kidneys, liver, lungs, pancreas, spleen, thyroids, and urinary bladder was assessed via PET with MIM v6.7 (MIM Software Inc.), using co-registered CT images to delineate regions of interest. To enable estimation of total activity in red bone marrow, tracer uptake and volume were measured based on activity concentrations in the 2nd to 4th lumbar vertebrae of each subject. Using a red marrow density of 1.03 g/mL and assuming that red marrow weight is 1.6% of total body weight, total red marrow activity was calculated for each subject. Time activity curves for organs were generated and in most cases fit to mono- or bi-exponential functions using OLINDA | EXM v1.1 software RRID:SCR_026835 [23]. For time activity curves that were poorly fit by exponential functions, a Riemann Sum was used to calculate numbers of disintegrations occurring in the organs. Dosimetry estimates were calculated using the Standard Adult Male phantom option in OLINDA.

[1] = average injected activity of 346 MBq (9.4 mCi)

## COc1cc(Cc2cnc(N)nc2N)cc(OC)c1O[11CH3] [[^11C]TMP, [^11C]trimethoprim]
Mean ± SD, n = 4 males
  Effective dose: 4.53E-03 mSv/MBq and 4.53E-03 ± 2.22E-04 mSv/MBq
  Effective dose equivalent: 6.08E-03 ± 3.49E-04 mSv/MBq
  Mean absorbed dose estimate, Adrenals: 3.47E-03 ± 1.13E-04 mSv/MBq
  Mean absorbed dose estimate, Bone (red marrow): 3.75E-03 ± 4.17E-04 mSv/MBq
  Mean absorbed dose estimate, Brain: 1.37E-03 ± 3.00E-04 mSv/MBq
  Mean absorbed dose estimate, Breasts: 1.95E-03 ± 8.35E-05 mSv/MBq
  Mean absorbed dose estimate, Heart wall: 4.66E-03 ± 3.36E-04 mSv/MBq
  Mean absorbed dose estimate, Kidneys: 1.35E-02 mSv/MBq and 1.35E-02 ± 2.44E-03 mSv/MBq
  Mean absorbed dose estimate, Liver: 1.43E-02 mSv/MBq and 1.43E-02 ± 1.58E-03 mSv/MBq
  Mean absorbed dose estimate, Lower large intestine wall: 2.83E-03 ± 8.88E-05 mSv/MBq
  Mean absorbed dose estimate, Lungs: 5.62E-03 ± 1.05E-03 mSv/MBq
  Mean absorbed dose estimate, Muscle: 2.25E-03 ± 6.29E-05 mSv/MBq
  Mean absorbed dose estimate, Osteogenic cells: 3.98E-03 ± 2.42E-04 mSv/MBq
  Mean absorbed dose estimate, Ovaries: 3.07E-03 ± 1.25E-04 mSv/MBq
  Mean absorbed dose estimate, Pancreas: 5.27E-03 ± 2.20E-03 mSv/MBq
  Mean absorbed dose estimate, Skin: 1.73E-03 ± 6.60E-05 mSv/MBq
  Mean absorbed dose estimate, Small intestine: 9.29E-03 ± 2.33E-03 mSv/MBq
  Mean absorbed dose estimate, Spleen: 1.18E-02 mSv/MBq and 1.18E-02 ± 4.64E-03 mSv/MBq
  Mean absorbed dose estimate, Stomach wall: 2.83E-03 ± 6.34E-05 mSv/MBq
  Mean absorbed dose estimate, Testes: 2.03E-03 ± 1.05E-04 mSv/MBq
  Mean absorbed dose estimate, Thymus: 2.31E-03 ± 9.59E-05 mSv/MBq
  Mean absorbed dose estimate, Thyroid: 5.96E-03 ± 1.73E-03 mSv/MBq
  Mean absorbed dose estimate, Total Body: 2.84E-03 ± 6.24E-05 mSv/MBq
  Mean absorbed dose estimate, Upper large intestine wall: 4.86E-03 ± 7.38E-04 mSv/MBq
  Mean absorbed dose estimate, Urinary bladder wall: 1.10E-02 mSv/MBq and 1.10E-02 ± 5.55E-03 mSv/MBq
  Mean absorbed dose estimate, Uterus: 3.21E-03 ± 2.24E-04 mSv/MBq
Mean ± SD, one subject with cholecystectomy removed
  Mean absorbed dose estimate, Gallbladder wall: 5.00E-03 ± 4.43E-04 mSv/MBq
PET imaging, 4 adult males
  background uptake in the brain: low background uptake in the brain
[1]
  estimated absorbed dose in the spleen: 4.1 mSv
  estimated effective dose: 1.6 mSv
Average injected activity of 346 MBq (9.4 mCi), highest uptake organ
  estimated absorbed dose in the liver: 4.9 mSv
